Source: patent publication CN116444420A, “β-catenin/BCL9蛋白蛋白相互作用的小分子抑制剂及其应用” (Shanghai Pharmaceutical Industry Research Institute Co ltd, priority 2021, dated 2023)

Target: T1, β-catenin/BCL9 protein-protein [β-catenin/BCL9蛋白-蛋白] (Homo sapiens, UniProt P35222)
T1 construct: β-catenin(1-781)
T1 sequence (P35222 1-781): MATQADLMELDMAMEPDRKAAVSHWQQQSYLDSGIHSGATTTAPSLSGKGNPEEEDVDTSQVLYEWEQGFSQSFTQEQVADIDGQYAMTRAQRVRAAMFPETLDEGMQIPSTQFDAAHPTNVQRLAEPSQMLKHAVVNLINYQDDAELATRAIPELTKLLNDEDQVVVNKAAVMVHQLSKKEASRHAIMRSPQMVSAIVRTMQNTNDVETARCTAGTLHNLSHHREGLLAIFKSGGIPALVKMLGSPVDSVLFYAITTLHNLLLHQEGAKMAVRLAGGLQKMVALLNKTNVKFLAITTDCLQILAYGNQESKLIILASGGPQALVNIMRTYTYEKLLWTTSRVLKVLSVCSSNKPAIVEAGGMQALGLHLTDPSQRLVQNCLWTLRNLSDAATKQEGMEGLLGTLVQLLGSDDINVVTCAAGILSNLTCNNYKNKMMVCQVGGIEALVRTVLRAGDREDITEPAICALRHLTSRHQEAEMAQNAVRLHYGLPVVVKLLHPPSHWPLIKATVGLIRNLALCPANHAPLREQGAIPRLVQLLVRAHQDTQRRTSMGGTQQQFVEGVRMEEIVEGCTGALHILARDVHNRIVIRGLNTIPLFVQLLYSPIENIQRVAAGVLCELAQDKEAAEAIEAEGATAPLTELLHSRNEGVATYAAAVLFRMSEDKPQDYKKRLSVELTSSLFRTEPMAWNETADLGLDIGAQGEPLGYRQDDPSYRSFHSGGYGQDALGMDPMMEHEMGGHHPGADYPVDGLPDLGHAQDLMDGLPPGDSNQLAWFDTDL
Assay: β-catenin/BCL9 protein-protein affinity, fluorescence polarisation (Example 71)
Format: binding
Settings: better than compound c

| SMILES | affinity activity compared with reference compound c |
| --- | --- |
| CC(C)(Oc1cccc(C2CCCN(C(=O)c3cccc(-c4ccccc4)c3)C2)c1)C(=O)O (stereo not shown) [化合物II-9, 2-(3-(1-([1,1'-联苯基]-3-羰基)哌啶-3-基)苯氧基)-2-甲基丙酸] | 亲和活性更优 |
| CC(C)(Oc1cccc(C2CCCN(S(=O)(=O)c3cccc(C4CCCCC4)c3)C2)c1)C(=O)O (stereo not shown) [化合物II-16, 2-(3-(1-((3-环己基苯基)磺酰基)哌啶-3-基)苯氧基)-2-甲基丙酸] | 亲和活性更优 |
| CC(C)(Oc1cccc(C2CCCN(S(=O)(=O)c3cccc(-c4cccs4)c3)C2)c1)C(=O)O (stereo not shown) [化合物II-17, 2-甲基-2-(3-(1-((3-(噻吩-2-基)苯基)磺酰基)哌啶-3-基)苯氧基)丙酸] | 亲和活性更优 |
| CC(C)(Oc1cccc(C2CCCN(C(=O)c3cccc(-c4ccc(F)c(F)c4)c3)C2)c1)C(=O)NS(=O)(=O)c1ccccc1 (stereo not shown) [化合物II-29, 2-(3-(1-(3',4'-二氟-[1,1'-联苯基]-3-羰基)哌啶-3-基)苯氧基)-2-甲基-N-(苯磺酰基)丙酰胺] | 亲和活性更优 |
| CC(C)c1ccc(-c2cccc(S(=O)(=O)N3CCCC(c4cccc(OC(C)(C)C(=O)NS(=O)(=O)c5ccc(C#N)cc5)c4)C3)c2)cc1 (stereo not shown) [化合物II-37, N-((4-氰基苯基)磺酰基)-2-(3-(1-((4'-异丙基-[1,1'-联苯]-3-基)磺酰)哌啶-3-基(苯氧基)-2-甲基丙酰胺] | 亲和活性更优 |
| CC(C)c1ccc(-c2cccc(S(=O)(=O)N3CCCC(c4cccc(OC(C)(C)C(=O)NS(=O)(=O)c5cccc(C(F)(F)F)c5)c4)C3)c2)cc1 (stereo not shown) [化合物II-40, 2-(3-(1-((4'-异丙基-[1,1'-联苯]-3-基)磺酰基)哌啶-3-基(苯氧基)-2-甲基-N-((3-(三氟甲基)苯基)磺酰)丙酰胺] | 亲和活性更优 |
| CC(C)c1ccc(-c2cccc(S(=O)(=O)N3CCCC(c4cccc(OC(C)(C)C(=O)NS(=O)(=O)c5ccc([N+](=O)[O-])cc5)c4)C3)c2)cc1 (stereo not shown) [化合物II-42, 2-(3-(1-((4'-异丙基-[1,1'-联苯]-3-基)磺酰基)哌啶-3-基苯氧基)-2-甲基-N-((4-硝基苯基)磺酰)丙酰胺] | 亲和活性更优 |
| CC(C)c1ccc(-c2cccc(S(=O)(=O)N3CCCC(c4cccc(OC(C)(C)C(=O)NS(=O)(=O)c5ccc(F)cc5)c4)C3)c2)cc1 (stereo not shown) [化合物II-43, N-((4-氟苯基)磺酰基)-2-(3-(1-((4'-异丙基-[1,1'-联苯]-3-基)磺酰)哌啶-3-基苯氧基)-2-甲基丙酰胺] | 亲和活性更优 |
| CC(C)c1ccc(-c2cccc(S(=O)(=O)N3CCCC(c4cccc(OC(C)(C)C(=O)NS(=O)(=O)c5cccc(F)c5)c4)C3)c2)cc1 (stereo not shown) [化合物II-44, N-((3-氟苯基)磺酰基)-2-(3-(1-((4'-异丙基-[1,1'-联苯]-3-基)磺酰)哌啶-3-基苯氧基)-2-甲基丙酰胺] | 亲和活性更优 |
| CC(C)c1ccc(-c2cccc(S(=O)(=O)N3CCCC(c4cccc(OC(C)(C)C(=O)NS(=O)(=O)c5cccc([N+](=O)[O-])c5)c4)C3)c2)cc1 (stereo not shown) [化合物II-45, 2-(3-(1-((4'-异丙基-[1,1'-联苯]-3-基)磺酰基)哌啶-3-基苯氧基)-2-甲基-N-((3-硝基苯基)磺酰)丙酰胺] | 亲和活性更优 |
| CC(C)c1ccc(-c2cccc(S(=O)(=O)N3CCCC(c4cccc(OC(C)(C)C(=O)NS(=O)(=O)c5cccc(C#N)c5)c4)C3)c2)cc1 (stereo not shown) [化合物II-46, N-((3-氰基苯基)磺酰基)-2-(3-(1-((4'-异丙基-[1,1'-联苯]-3-基)磺酰)哌啶-3-基苯氧基)-2-甲基丙酰胺] | 亲和活性更优 |
| CC(C)c1ccc(-c2cccc(S(=O)(=O)N3CCCC(c4cccc(OC(C)(C)C(=O)NS(=O)(=O)c5ccc(OC(F)(F)F)cc5)c4)C3)c2)cc1 (stereo not shown) [化合物II-48, 2-(3-(1-((4'-异丙基-[1,1'-联苯]-3-基)磺酰基)哌啶-3-基苯氧基)-2-甲基-N-((4-(三氟甲氧基)苯基)磺酰)丙酰胺] | 亲和活性更优 |
| CC(=O)Nc1ccc(S(=O)(=O)NC(=O)C(C)(C)Oc2cccc(C3CCCN(S(=O)(=O)c4cccc(-c5ccc(C(C)C)cc5)c4)C3)c2)cc1 (stereo not shown) [化合物II-49, N-((4-乙酰氨基苯基)磺酰基)-2-(3-(1-((4'-异丙基-[1,1'-联苯]-3-基)磺酰)哌啶-3-基(苯氧基)-2-甲基丙酰胺] | 亲和活性更优 |
| CC(C)c1ccc(-c2cccc(S(=O)(=O)N3CCCC(c4cccc(OC(C)(C)C(=O)NS(=O)(=O)c5ccc6ccccc6c5)c4)C3)c2)cc1 (stereo not shown) [化合物II-50, 2-(3-(1-((4'-异丙基-[1,1'-联苯]-3-基)磺酰基)哌啶-3-基(苯氧基)-2-甲基-N-(萘-2-基磺酰)丙酰胺] | 亲和活性更优 |
| COc1cccc(S(=O)(=O)NC(=O)C(C)(C)Oc2cccc(C3CCCN(S(=O)(=O)c4cccc(-c5ccc(C(C)C)cc5)c4)C3)c2)c1 (stereo not shown) [化合物II-51, 2-(3-(1-((4'-异丙基-[1,1'-联苯]-3-基)磺酰基)哌啶-3-基(苯氧基)-N-((3-甲氧基苯基)磺酰)-2-甲基丙酰胺] | 亲和活性更优 |
| CC(C)c1ccc(-c2cccc(S(=O)(=O)N3CCCC(c4cccc(OC(C)(C)C(=O)NS(=O)(=O)c5ccc(C(F)(F)F)cc5Cl)c4)C3)c2)cc1 (stereo not shown) [化合物II-52, N-((2-氯-4-(三氟甲基)苯基)磺酰基)-2-(3-(1-((4'-异丙基-[1,1'-联苯]-3-基)磺酰)哌啶-3-基苯氧基)-2-甲基丙酰胺] | 亲和活性更优 |
| CC(C)(Oc1cccc(C2CCCN(C(=O)c3cccc(-c4ccc(F)c(F)c4)c3)C2)c1)C(=O)NS(=O)(=O)c1ccc(C(F)(F)F)cc1 (stereo not shown) [化合物II-55, 2-(3-(1-(3',4'-二氟-[1,1'-联苯]-3-羰基)哌啶-3-基)苯氧基)-2-甲基-N-((4-(三氟甲基)苯基)磺酰基)丙酰胺] | 亲和活性更优 |
| CC(C)(Oc1cccc(C2CCCN(C(=O)c3cccc(-c4ccc(F)c(F)c4)c3)C2)c1)C(=O)NS(=O)(=O)c1ccc2ccccc2c1 (stereo not shown) [化合物II-56, 2-(3-(1-(3',4'-二氟-[1,1'-联苯]-3-羰基)哌啶-3-基)苯氧基)-2-甲基-N-(萘-2-基磺酰基)丙酰胺] | 亲和活性更优 |
| CC(C)(Oc1cccc(C2CCCN(C(=O)c3cccc(-c4ccc(F)c(F)c4)c3)C2)c1)C(=O)N1CCC(=O)CC1 (stereo not shown) [化合物II-57, 1-(2-(3-(1-(3',4'-二氟-[1,1'-联苯]-3-羰基)哌啶-3-基)苯氧基)-2-甲基丙酰基)哌嗪-4-酮] | 亲和活性更优 |
| CC(C)(Oc1cccc(C2CCCN(C(=O)c3cccc(-c4ccc(F)c(F)c4)c3)C2)c1)C(=O)N1CCNCC1.Cl (stereo not shown) [化合物II-58, 4-(2-(3-(1-(3',4'-二氟-[1,1'-联苯]-3-羰基)哌啶-3-基)苯氧基)-2-甲基丙酰基)哌嗪-1-氯化铵] | 亲和活性更优 |
| CC(C)(Oc1cccc(C2CCCN(C(=O)c3cccc(-c4ccc(F)c(F)c4)c3)C2)c1)C(=O)N1CCC(N)CC1.Cl (stereo not shown) [化合物II-59, 1-(2-(3-(1-(3',4'-二氟-[1,1'-联苯]-3-羰基)哌啶-3-基)苯氧基)-2-甲基丙酰基)哌嗪-4-氯化铵] | 亲和活性更优 |
| CC(C)(Oc1cccc(C2CCCN(C(=O)c3cccc(-c4ccc(F)c(F)c4)c3)C2)c1)C(=O)N1CCOCC1 (stereo not shown) [化合物II-60, 2-(3-(1-(3',4'-二氟-[1,1'-联苯]-3-羰基)哌啶-3-基)苯氧基)-2-甲基-1-吗啉丙-1-酮] | 亲和活性更优 |
| CC(C)(Oc1cccc(C2CCCN(C(=O)c3cccc(-c4ccc(F)c(F)c4)c3)C2)c1)C(=O)NC1CCNCC1.Cl (stereo not shown) [化合物II-61, 4-(2-(3-(1-(3',4'-二氟-[1,1'-联苯]-3-羰基)哌啶-3-基)苯氧基)-2-甲基丙酰胺)哌啶-1-氯化铵] | 亲和活性更优 |
| CC(C)(Oc1cccc(C2CCCN(C(=O)c3cccc(-c4ccc(F)c(F)c4)c3)C2)c1)C(=O)N1CCC(O)CC1 (stereo not shown) [化合物II-63, 2-(3-(1-(3',4'-二氟-[1,1'-联苯]-3-羰基)哌啶-3-基)苯氧基)-1-(4-羟基哌啶-1-基)-2-甲基丙-1-酮] | 亲和活性更优 |
| CC(C)(Oc1cccc(C2CCCN(C(=O)c3cccc(-c4ccc(F)c(F)c4)c3)C2)c1)C(=O)N1C[C@H]2C[C@@H]1CN2.Cl (stereo partly drawn) [化合物II-65, (1R,4R)-5-(2-(3-(3-(3',4'-二氟-[1,1'-联苯]-3-羰基)哌啶-3-基)苯氧基)-2-甲基丙酰基)-2,5-二氮杂二环[2.2.1]庚-2-氯化铵] | 亲和活性更优 |
